In general, Dmax refers to the greatest extent of degradation seen. A high value points to deep degradation. The term DC50 denotes the concentration at which degradation of the target reaches its halfway point. A higher DC50 goes with degradation only at high concentration.

The target of this experiment is T1, p300 (Homo sapiens, UniProt Q09472).
T1 construct: host or cells: A549 P300 HiBit cells
The experiment in a line: P300 degradation, HiBit technology in A549 P300 HiBit cells (2 h). The format is cell-based. Particulars: 2 hrs post treatment; for Dmax: A549, A549 P300 HiBit cells; for DC50: A549 P300 HiBit cells. In a few lines: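 A549 cells carrying HiBit-tagged p300 or CBP, seeded overnight at 37 °C/5% CO2, then treated with serial compound dilutions from 10 mM DMSO stocks. Incubation was 2 h for p300 and 24 h for CBP, followed by HiBit lytic detection reagent for 10 min at room temperature. Luminescence read gave degradation potency and Dmax.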
On the technique in general: HiBiT is a short tag that completes a luciferase, so light tracks the accessible tagged protein.

T1 sequence (Q09472 whole entry): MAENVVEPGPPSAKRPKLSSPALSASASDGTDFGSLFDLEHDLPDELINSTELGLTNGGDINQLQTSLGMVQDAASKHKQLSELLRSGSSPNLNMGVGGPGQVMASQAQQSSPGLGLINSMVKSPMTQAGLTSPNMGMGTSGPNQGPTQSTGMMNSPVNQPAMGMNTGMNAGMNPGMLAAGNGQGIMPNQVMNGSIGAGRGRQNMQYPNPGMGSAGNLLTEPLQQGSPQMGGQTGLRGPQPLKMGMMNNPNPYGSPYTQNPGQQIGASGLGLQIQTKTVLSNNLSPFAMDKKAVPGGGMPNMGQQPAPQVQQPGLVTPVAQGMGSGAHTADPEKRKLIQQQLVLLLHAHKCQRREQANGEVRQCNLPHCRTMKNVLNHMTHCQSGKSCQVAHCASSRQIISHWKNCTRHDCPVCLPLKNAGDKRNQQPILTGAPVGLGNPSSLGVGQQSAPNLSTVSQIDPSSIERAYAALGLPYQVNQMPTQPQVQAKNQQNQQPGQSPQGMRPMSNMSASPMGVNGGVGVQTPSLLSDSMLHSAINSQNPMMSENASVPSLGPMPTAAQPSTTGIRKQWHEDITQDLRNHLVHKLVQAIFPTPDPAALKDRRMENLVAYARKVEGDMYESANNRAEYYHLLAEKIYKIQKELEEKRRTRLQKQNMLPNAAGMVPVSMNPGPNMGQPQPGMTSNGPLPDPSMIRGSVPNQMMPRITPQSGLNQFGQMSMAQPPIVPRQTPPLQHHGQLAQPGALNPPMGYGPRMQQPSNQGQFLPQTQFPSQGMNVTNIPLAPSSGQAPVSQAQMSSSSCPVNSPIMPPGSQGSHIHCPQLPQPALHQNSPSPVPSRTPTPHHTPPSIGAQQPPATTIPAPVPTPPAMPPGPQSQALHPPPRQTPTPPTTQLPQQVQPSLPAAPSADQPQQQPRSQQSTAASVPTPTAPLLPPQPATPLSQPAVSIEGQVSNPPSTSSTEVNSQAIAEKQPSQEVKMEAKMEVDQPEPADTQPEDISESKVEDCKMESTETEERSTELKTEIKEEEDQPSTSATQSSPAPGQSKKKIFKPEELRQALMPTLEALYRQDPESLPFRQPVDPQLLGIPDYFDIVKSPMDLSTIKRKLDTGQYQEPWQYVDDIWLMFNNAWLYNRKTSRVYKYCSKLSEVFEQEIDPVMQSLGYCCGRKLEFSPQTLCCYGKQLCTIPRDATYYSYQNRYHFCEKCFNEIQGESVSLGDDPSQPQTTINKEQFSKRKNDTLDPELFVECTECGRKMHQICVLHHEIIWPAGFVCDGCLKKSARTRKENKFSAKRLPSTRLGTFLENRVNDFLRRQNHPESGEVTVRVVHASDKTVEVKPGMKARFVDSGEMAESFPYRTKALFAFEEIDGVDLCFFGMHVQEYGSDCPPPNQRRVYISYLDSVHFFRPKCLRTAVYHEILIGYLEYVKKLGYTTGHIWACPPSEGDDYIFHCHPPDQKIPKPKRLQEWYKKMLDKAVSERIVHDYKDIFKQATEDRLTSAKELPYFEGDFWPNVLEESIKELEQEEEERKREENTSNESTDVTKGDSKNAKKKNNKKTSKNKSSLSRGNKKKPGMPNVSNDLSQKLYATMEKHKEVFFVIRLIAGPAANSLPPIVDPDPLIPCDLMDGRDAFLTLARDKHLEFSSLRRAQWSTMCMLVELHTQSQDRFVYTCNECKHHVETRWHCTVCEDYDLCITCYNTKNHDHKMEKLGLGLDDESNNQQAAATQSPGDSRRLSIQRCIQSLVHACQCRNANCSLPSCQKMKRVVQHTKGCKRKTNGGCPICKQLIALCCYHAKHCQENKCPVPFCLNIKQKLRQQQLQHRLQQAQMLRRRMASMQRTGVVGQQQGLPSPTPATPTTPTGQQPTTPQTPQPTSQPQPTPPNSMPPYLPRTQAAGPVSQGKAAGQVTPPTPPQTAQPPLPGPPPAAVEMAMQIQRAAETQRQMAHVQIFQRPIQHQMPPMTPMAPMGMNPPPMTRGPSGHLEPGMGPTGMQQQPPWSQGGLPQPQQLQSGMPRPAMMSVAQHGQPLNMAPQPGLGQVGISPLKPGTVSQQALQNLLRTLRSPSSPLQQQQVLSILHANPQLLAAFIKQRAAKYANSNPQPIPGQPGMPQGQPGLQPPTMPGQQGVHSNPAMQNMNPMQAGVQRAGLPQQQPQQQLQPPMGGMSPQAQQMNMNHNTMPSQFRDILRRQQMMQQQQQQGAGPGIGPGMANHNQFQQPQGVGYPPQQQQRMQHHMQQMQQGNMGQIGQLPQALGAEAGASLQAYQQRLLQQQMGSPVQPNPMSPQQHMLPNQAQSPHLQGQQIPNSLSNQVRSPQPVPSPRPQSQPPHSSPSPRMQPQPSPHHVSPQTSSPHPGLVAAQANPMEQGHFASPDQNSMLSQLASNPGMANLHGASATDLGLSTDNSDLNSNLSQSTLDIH

Take `CC(C)c1cc(-c2cccc3cc(-c4ccc(C(=O)NCC#Cc5cnc6occ(C7CCC(=O)NC7=O)c6c5)nc4)ncc23)cc2c1n(C)c(=O)n2C` (centres unmarked) [Example A196, N-(3-(3-(2,6-dioxo-piperidin-3-yl)furo[2,3-b]pyridin-5-yl)prop-2-yn-1-yl)-5-(8-(7-isopropyl-1,3-dimethyl-2-oxo-2,3-dihydro-1H-benzo[d]imidazol-5-yl)isoquinolin-3-yl)picolinamide]: the Dmax is above 80% and the DC50 is 1 to 9.9 nM.
As to `Cc1cc(-c2cc(N(C)C)c(N(C)c3cc(C4CCOCC4)c4c(c3)n(C)c(=O)n4C)cn2)cnc1C(=O)NCC#Cc1cc2c(C3CCC(=O)NC3=O)cccc2o1` (centres unmarked) [Example A198, 5-((1,3-dimethyl-2-oxo-7-(tetrahydro-2H-pyran-4-yl)-2,3-dihydro-1H-benzo[d]imidazol-5-yl)(methyl)amino)-4-(dimethylamino)-N-(3-(4-(2,6-dioxopiperidin-3-yl)benzofuran-2-yl)prop-2-yn-1-yl)-5′-methyl-[2,3′-bipyridine]-6′-carboxamide], the Dmax was below 20% and the DC50 is above 1000 nM.
The matching figures for `Cc1nc(-c2cnc(N(C)c3cc(C4CCOCC4)c4c(c3)n(C)c(=O)n4C)cn2)cnc1C(=O)NCC#Cc1cc2c(C3CCC(=O)NC3=O)nccc2o1` (centres unmarked) [Example A200, 5′-((1,3-dimethyl-2-oxo-7-(tetrahydro-2H-pyran-4-yl)-2,3-dihydro-1H-benzo [d]imidazol-5-yl) (methyl)amino)-N-(3-(4-(2,6-dioxo-piperidin-3-yl)furo[3,2-c]pyridin-2-yl)prop-2-yn-1-yl)-6-methyl-[2,2′-bipyrazine]-5-carboxamide]: above 80% and 1 to 9.9 nM.
With `Cc1cc(-c2ncc(N(C)c3cc(C4CCOCC4)c4c(c3)n(C)c(=O)n4C)cn2)cnc1C(=O)NCC#Cc1ccc2occ(C34CC(C3)C(=O)NC4=O)c2c1` [Example A201, 5-(5-((1,3-dimethyl-2-oxo-7-(tetrahydro-2H-pyran-4-yl)-2,3-dihydro-1H-benzo[d]imidazol-5-yl)(methyl)amino)pyrimidin-2-yl)-N-(3-(3-(2,4-dioxo-3-azabicyclo[3.1.1]heptan-1-yl)benzofuran-5-yl)prop-2-yn-1-yl)-3-methylpicolinamide], the Dmax was above 80% and the DC50 is 1 to 9.9 nM.
The compound `Cn1c(=O)n(C)c2c(N3CCC3)nc(-c3cccc4cc(-c5ccc(C(=O)NCC#Cc6cc7c(C8CCC(=O)NC8=O)cccc7o6)nc5)ncc34)cc21` (centres unmarked) [Example A205, 5-(8-(4-(azetidin-1-yl)-1,3-dimethyl-2-oxo-2,3-dihydro-1H-imidazo[4,5-c]pyridin-6-yl)iso-quinolin-3-yl)-N-(3-(4-(2,6-dioxopiperidin-3-yl)benzofuran-2-yl)prop-2-yn-1-yl)picolinamide] displayed a Dmax above 80% and a DC50 of 1 to 9.9 nM.
The compound `Cn1c(=O)n(C)c2c(N3CCOCC3)nc(-c3cccc4cc(-c5ccc(C(=O)NCC#Cc6cc7c(C8CCC(=O)NC8=O)nccc7o6)nc5)ncc34)cc21` (centres unmarked) [Example A206, 5-(8-(1,3-dimethyl-4-morpholino-2-oxo-2,3-dihydro-1H-imidazo[4,5-c]pyridin-6-yl)isoquinolin-3-yl)-N-(3-(4-(2,6-dioxopiperidin-3-yl)furo[3,2-c]pyridin-2-yl)prop-2-yn-1-yl)picolinamide] had a Dmax above 80% and a DC50 below 1 nM.
`Cc1cc(N2CCN(C)c3cc(-c4ccc(C(=O)NCC#Cc5cc6c(C7CCC(=O)NC7=O)nccc6o5)nc4)ncc32)cc2c1n(C)c(=O)n2C` (centres unmarked) [Example A209, N-(3-(4-(2,6-dioxo-piperidin-3-yl)furo [3,2-c]pyridin-2-yl)prop-2-yn-1-yl)-5-(1-methyl-4-(1,3,7-trimethyl-2-oxo-2,3-dihydro-1H-benzo[d]imidazol-5-yl)-1,2,3,4-tetrahydropyrido[3,4-b]pyrazin-7-yl)picolinamide]: the Dmax is above 80% and the DC50 is below 1 nM.
The matching figures for `CC(C)c1cc(-c2cccc3cc(-c4ccc(C(=O)NCC#Cc5ccc6ncnc(C7CCC(=O)NC7=O)c6c5)nc4)ncc23)cc2c1n(C)c(=O)n2C` (centres unmarked) [Example A214, N-(3-(4-(2,6-dioxo-piperidin-3-yl)quinazolin-6-yl)prop-2-yn-1-yl)-5-(8-(7-isopropyl-1,3-dimethyl-2-oxo-2,3-dihydro-1H-benzo [d]imidazol-5-yl)isoquinolin-3-yl)picolinamide]: 60 to 79% and 10 to 99 nM.
On the same counts, the results for `Cn1c(=O)n(C)c2cc(N3CCCc4nc(-c5ccc(C(=O)NCC#Cc6ccc7occ(C89CC(C8)C(=O)NC9=O)c7c6)nc5)ncc43)ccc21` [Example A215, 5-(5-(1,3-dimethyl-2-oxo-2,3-dihydro-1H-benzo[d]imidazol-5-yl)-5,6,7,8-tetrahydropyrido[3,2-d]pyrimidin-2-yl)-N-(3-(3-(2,4-dioxo-3-azabicyclo[3.1.1]heptan-1-yl)benzofuran-5-yl)prop-2-yn-1-yl)picolinamide] are 60 to 79% and 10 to 99 nM.
As to `Cn1c(=O)n(C)c2cc(N3CCCc4cc(-c5ccc(C(=O)NCC#Cc6cc7c(C8CCC(=O)NC8=O)cccc7o6)nc5)nnc43)ccc21` (centres unmarked) [Example A217, 5-(8-(1,3-dimethyl-2-oxo-2,3-dihydro-1H-benzo[d]imidazol-5-yl)-5,6,7,8-tetrahydropyrido[2,3-c]pyridazin-3-yl)-N-(3-(4-(2,6-dioxo-piperidin-3-yl)benzofuran-2-yl)prop-2-yn-1-yl)picolinamide], the Dmax is above 80% and the 50% degradation concentration (DC50) was 1 to 9.9 nM.
On the same counts, the results for `CN1CCN(c2ccc3c(c2)n(C)c(=O)n3C)c2cnc(-c3ccc(C(=O)NCC#Cc4cc5c(C6CCC(=O)NC6=O)nccc5o4)nc3)cc21` (centres unmarked) [Example A218, 5-(4-(1,3-dimethyl-2-oxo-2,3-dihydro-1H-benzo[d]imidazol-5-yl)-1-methyl-1,2,3,4-tetrahydropyrido[3,4-b]pyrazin-7-yl)-N-(3-(4-(2,6-dioxo-piperidin-3-yl)furo[3,2-c]pyridin-2-yl)prop-2-yn-1-yl)picolinamide] are above 80% and below 1 nM.
The matching figures for `Cc1cc(N2CCN(C)c3nc(-c4ccc(C(=O)NCC#Cc5cc6c(C7CCC(=O)NC7=O)nccc6o5)nc4)ncc32)cc2c1n(C)c(=O)n2C` (centres unmarked) [Example A220, N-(3-(4-(2,6-dioxo-piperidin-3-yl)furo[3,2-c]pyridin-2-yl)prop-2-yn-1-yl)-5-(8-methyl-5-(1,3,7-trimethyl-2-oxo-2,3-dihydro-1H-benzo [d]imidazol-5-yl)-5,6,7,8-tetrahydro-pteridin-2-yl)picolinamide]: above 80% and 1 to 9.9 nM.
On the same counts, the results for `Cc1nc(-c2cnc(N(C)c3cc(C4CCOCC4)c4c(c3)n(C)c(=O)n4C)cn2)cnc1C(=O)NCC#Cc1cc2c(C3CCC(=O)NC3=O)cccc2o1` (centres unmarked) [Example A222, 5′-((1,3-dimethyl-2-oxo-7-(tetrahydro-2H-pyran-4-yl)-2,3-dihydro-1H-benzo[d]imidazol-5-yl)(methyl)amino)-N-(3-(4-(2,6-dioxo-piperidin-3-yl)benzofuran-2-yl)prop-2-yn-1-yl)-6-methyl-[2,2′-bipyrazine]-5-carboxamide] are above 80% and 1 to 9.9 nM.
